In PubChem BioAssay AID1963970 (Molecular Pharmacology Branch, DTP, NCI, 2024):

Test system: 931267-113-T-J1-PDC multicell spheroid viability
Assay: Anticancer human tumor 931267-113-T-J1-PDC patient-derived colon adenocarcinoma cell line growth inhibition [PI3K]
Conditions: for IC50: curve of first compound; for viability, T/C: stronger effect = lower value; active = viability on the fitted dose curve at most 10% of control; inactive = the rest
How it was run: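 Complex 3D spheroids (cancer cells + endothelial HUVEC + mesenchymal stem cells); drug pairs of targeted agent x inavolisib/alpelisib/duvelisib/copanlisib; half-log series from ~Cmax, max 10 microM if Cmax unknown; endpoint viability.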

[1] = second compound 0.00316 µM, first compound 0.0316 µM
[2] = second compound 0.00316 µM, first compound 0.1 µM
[3] = second compound 0.00316 µM, first compound 0.316 µM
[4] = second compound 0.00316 µM, first compound 1 µM
[5] = second compound 0.00316 µM, first compound 3.16 µM
[6] = second compound 0.00316 µM, first compound 10 µM
[7] = second compound 0.01 µM, first compound 0.0316 µM
[8] = second compound 0.01 µM, first compound 0.1 µM
[9] = second compound 0.01 µM, first compound 0.316 µM
[10] = second compound 0.01 µM, first compound 1 µM
[11] = second compound 0.01 µM, first compound 3.16 µM
[12] = second compound 0.01 µM, first compound 10 µM
[13] = second compound 0.0316 µM, first compound 0.0316 µM
[14] = second compound 0.0316 µM, first compound 0.1 µM
[15] = second compound 0.0316 µM, first compound 0.316 µM
[16] = second compound 0.0316 µM, first compound 1 µM
[17] = second compound 0.0316 µM, first compound 3.16 µM
[18] = second compound 0.0316 µM, first compound 10 µM
[19] = second compound 0.1 µM, first compound 0.0316 µM
[20] = second compound 0.1 µM, first compound 0.1 µM
[21] = second compound 0.1 µM, first compound 0.316 µM
[22] = second compound 0.1 µM, first compound 1 µM
[23] = second compound 0.1 µM, first compound 3.16 µM
[24] = second compound 0.1 µM, first compound 10 µM
[25] = second compound 0.316 µM, first compound 0.0316 µM
[26] = second compound 0.316 µM, first compound 0.1 µM
[27] = second compound 0.316 µM, first compound 0.316 µM
[28] = second compound 0.316 µM, first compound 1 µM
[29] = second compound 0.316 µM, first compound 3.16 µM
[30] = second compound 0.316 µM, first compound 10 µM
[31] = second compound 1 µM, first compound 0.0316 µM
[32] = second compound 1 µM, first compound 0.1 µM
[33] = second compound 1 µM, first compound 0.316 µM
[34] = second compound 1 µM, first compound 1 µM
[35] = second compound 1 µM, first compound 3.16 µM
[36] = second compound 1 µM, first compound 10 µM
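Also: viability read 7 days after compound addition.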

CC1(C)CCC(CN2CCN(c3ccc(C(=O)NS(=O)(=O)c4ccc(NCC5CCOCC5)c([N+](=O)[O-])c4)c(Oc4cnc5[nH]ccc5c4)c3)CC2)=C(c2ccc(Cl)cc2)C1 + COc1c(OCCCN2CCOCC2)ccc2c3n(c(=NC(=O)c4cnc(N)nc4)nc12)CCN3
7.49 µM: IC50 (second compound 0.1 µM)
> 10 µM: IC50 (second compound 0.00316 µM) | IC50 (second compound 0.01 µM) | IC50 (second compound 0.0316 µM)
inactive: viability, T/C [1] 105% | viability, T/C [2] 99.5% | viability, T/C [3] 99% | viability, T/C [4] 102% | viability, T/C [5] 99.7% | viability, T/C [6] 80.8% | viability, T/C [7] 104% | viability, T/C [8] 104% | viability, T/C [9] 97.6% | viability, T/C [10] 91.7% | viability, T/C [11] 96.5% | viability, T/C [12] 71.1% | viability, T/C [13] 92.4% | viability, T/C [14] 89.8% | viability, T/C [15] 92.8% | viability, T/C [16] 86.4% | viability, T/C [17] 87.3% | viability, T/C [18] 68.2% | viability, T/C [19] 74.9% | viability, T/C [20] 74.8% | viability, T/C [21] 71.2% | viability, T/C [22] 65.1% | viability, T/C [23] 59.5% | viability, T/C [24] 46.8% | viability, T/C [25] 53.5% | viability, T/C [26] 50.3% | viability, T/C [27] 49.2% | viability, T/C [28] 51.7% | viability, T/C [29] 49.6% | viability, T/C [30] 31.3% | viability, T/C [31] 37.5% | viability, T/C [32] 32.5% | viability, T/C [33] 35.8% | viability, T/C [34] 36.1% | viability, T/C [35] 33.7% | viability, T/C [36] 33.3%
2.36 µM: IC50 (second compound 0.316 µM)
< 0.0316 µM: IC50 (second compound 1 µM)

C[C@@H](NC(=O)c1ncnc(N)c1Cl)c1ncc(C(=O)Nc2cc(C(F)(F)F)c(Cl)cn2)s1 + COc1c(OCCCN2CCOCC2)ccc2c3n(c(=NC(=O)c4cnc(N)nc4)nc12)CCN3
4.05 µM: IC50 (second compound 0.1 µM)
1.32 µM: IC50 (second compound 0.316 µM)
< 0.0316 µM: IC50 (second compound 1 µM)
inactive: viability, T/C [1] 109% | viability, T/C [2] 117% | viability, T/C [3] 106% | viability, T/C [4] 111% | viability, T/C [5] 105% | viability, T/C [6] 76% | viability, T/C [7] 108% | viability, T/C [8] 102% | viability, T/C [9] 104% | viability, T/C [10] 115% | viability, T/C [11] 96.5% | viability, T/C [12] 74.2% | viability, T/C [13] 95.3% | viability, T/C [14] 94.4% | viability, T/C [15] 94.7% | viability, T/C [16] 92.1% | viability, T/C [17] 76.6% | viability, T/C [18] 51% | viability, T/C [19] 86.5% | viability, T/C [20] 75.8% | viability, T/C [21] 76.6% | viability, T/C [22] 65% | viability, T/C [23] 57.2% | viability, T/C [24] 33.7% | viability, T/C [25] 58.9% | viability, T/C [26] 58.8% | viability, T/C [27] 59.4% | viability, T/C [28] 51.4% | viability, T/C [29] 41.8% | viability, T/C [30] 25.1% | viability, T/C [31] 45.4% | viability, T/C [32] 41% | viability, T/C [33] 42.6% | viability, T/C [34] 35.2% | viability, T/C [35] 32.1% | viability, T/C [36] 18.5%
> 10 µM: IC50 (second compound 0.00316 µM) | IC50 (second compound 0.01 µM) | IC50 (second compound 0.0316 µM)

Cn1ncnc1[C@H]1c2n[nH]c(=O)c3cc(F)cc(c23)N[C@@H]1c1ccc(F)cc1 + COc1c(OCCCN2CCOCC2)ccc2c3n(c(=NC(=O)c4cnc(N)nc4)nc12)CCN3
0.00113 µM: IC50 (second compound 0.316 µM)
< 0.000316 µM: IC50 (second compound 1 µM)
> 0.1 µM: IC50 (second compound 0.00316 µM) | IC50 (second compound 0.01 µM) | IC50 (second compound 0.0316 µM) | IC50 (second compound 0.1 µM)
inactive: viability, T/C (second compound 0.00316 µM, first compound 0.000316 µM) 103% | viability, T/C (second compound 0.00316 µM, first compound 0.001 µM) 107% | viability, T/C (second compound 0.00316 µM, first compound 0.00316 µM) 107% | viability, T/C (second compound 0.00316 µM, first compound 0.01 µM) 98.7% | viability, T/C [1] 106% | viability, T/C [2] 93.9% | viability, T/C (second compound 0.01 µM, first compound 0.000316 µM) 103% | viability, T/C (second compound 0.01 µM, first compound 0.001 µM) 97.9% | viability, T/C (second compound 0.01 µM, first compound 0.00316 µM) 94.2% | viability, T/C (second compound 0.01 µM, first compound 0.01 µM) 89.2% | viability, T/C [7] 93% | viability, T/C [8] 91.3% | viability, T/C (second compound 0.0316 µM, first compound 0.000316 µM) 85.2% | viability, T/C (second compound 0.0316 µM, first compound 0.001 µM) 88.9% | viability, T/C (second compound 0.0316 µM, first compound 0.00316 µM) 82.1% | viability, T/C (second compound 0.0316 µM, first compound 0.01 µM) 83% | viability, T/C [13] 81.8% | viability, T/C [14] 79% | viability, T/C (second compound 0.1 µM, first compound 0.000316 µM) 70.2% | viability, T/C (second compound 0.1 µM, first compound 0.001 µM) 68.5% | viability, T/C (second compound 0.1 µM, first compound 0.00316 µM) 70.7% | viability, T/C (second compound 0.1 µM, first compound 0.01 µM) 66% | viability, T/C [19] 69% | viability, T/C [20] 61.3% | viability, T/C (second compound 0.316 µM, first compound 0.000316 µM) 54.3% | viability, T/C (second compound 0.316 µM, first compound 0.001 µM) 52.5% | viability, T/C (second compound 0.316 µM, first compound 0.00316 µM) 46.1% | viability, T/C (second compound 0.316 µM, first compound 0.01 µM) 43.4% | viability, T/C [25] 46.4% | viability, T/C [26] 43.4% | viability, T/C (second compound 1 µM, first compound 0.000316 µM) 33.3% | viability, T/C (second compound 1 µM, first compound 0.001 µM) 34.1% | viability, T/C (second compound 1 µM, first compound 0.00316 µM) 30.9% | viability, T/C (second compound 1 µM, first compound 0.01 µM) 34.4% | viability, T/C [31] 36.6% | viability, T/C [32] 30.3%
